The supplement of paper PMC10307832

Experiments:
Assay in all cases: relative viability (nuclei count vs DMSO), 5 days (fraction); higher = more cells survive
[1] = system: NCI-H650
In short: (§1)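 Relative viability divides the nuclei count in treated wells by that in vehicle wells. Lung cancer cell lines were seeded in 1536-well plates, dosed by pin tool the next day, and fixed and stained after 5 days in one step with final 0.05% Triton X-100, 1% formaldehyde and 1 ug/ml Hoechst. Dosing was a single drug or a fixed anchor-drug dose plus five library-drug doses (not always all listed) in √10 steps, and values are medians of duplicate plates imaged at 4×.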

[2] = system: LU99A
In short: as §1

[3] = system: NCI-H2170
In short: as §1

[4] = system: 201T
In short: as §1

[5] = system: NCI-H2087
In short: as §1

[6] = system: EKVX
In short: as §1

[7] = system: NCI-H1437
In short: as §1

[8] = system: NCI-H2085
In short: as §1

[9] = system: HCC-827
In short: as §1

[10] = system: SW 1573
In short: as §1

[11] = system: NCI-H1975
In short: as §1

[12] = system: HCC-44
In short: as §1

[13] = system: H3255
In short: as §1

[14] = system: NCI-H1666
In short: as §1

[15] = system: EPLC-272H
In short: as §1

[16] = system: LCLC-97TM1
In short: as §1

[17] = system: NCI-H647
In short: as §1

[18] = system: LOU-NH91
In short: as §1

[19] = system: BEN
In short: as §1

[20] = system: COR-L 105
In short: as §1

[21] = system: PC-3 [JPC-3]
In short: as §1

## O=c1cc(-c2cccc3c2Sc2ccccc2S3)oc(N2CCOCC2)c1 + CS(=O)(=O)CCNCc1ccc(-c2ccc3ncnc(Nc4ccc(OCc5cccc(F)c5)c(Cl)c4)c3c2)o1 [Lapatinib] (partner 2 µM)
[1]; first compound 0.08 µM
  relative viability: 0.819
[1]; first compound 0.253 µM
  relative viability: 0.84
[1]; first compound 0.8 µM
  relative viability: 1.16
[1]; first compound 2.53 µM
  relative viability: 0.706
[1]; first compound 8 µM
  relative viability: 0.842
[2]; first compound 0.08 µM
  relative viability: 1.07
[2]; first compound 0.253 µM
  relative viability: 0.954
[2]; first compound 0.8 µM
  relative viability: 1.49
[2]; first compound 2.53 µM
  relative viability: 1.03
[2]; first compound 8 µM
  relative viability: 1.11
[3]; first compound 0.08 µM
  relative viability: 0.258
[3]; first compound 0.253 µM
  relative viability: 0.284
[3]; first compound 0.8 µM
  relative viability: 0.239
[3]; first compound 2.53 µM
  relative viability: 0.271
[3]; first compound 8 µM
  relative viability: 0.308
[4]; first compound 0.08 µM
  relative viability: 1.02
[4]; first compound 0.253 µM
  relative viability: 1.09
[4]; first compound 0.8 µM
  relative viability: 0.915
[4]; first compound 2.53 µM
  relative viability: 0.951
[4]; first compound 8 µM
  relative viability: 1
[5]; first compound 0.08 µM
  relative viability: 0.981
[5]; first compound 0.253 µM
  relative viability: 0.98
[5]; first compound 0.8 µM
  relative viability: 1.13
[5]; first compound 2.53 µM
  relative viability: 0.959
[5]; first compound 8 µM
  relative viability: 1.4
[6]; first compound 0.08 µM
  relative viability: 0.226
[6]; first compound 0.253 µM
  relative viability: 0.186
[6]; first compound 0.8 µM
  relative viability: 0.166
[6]; first compound 2.53 µM
  relative viability: 0.186
[6]; first compound 8 µM
  relative viability: 0.202
[7]; first compound 0.08 µM
  relative viability: 0.782
[7]; first compound 0.253 µM
  relative viability: 1.2
[7]; first compound 0.8 µM
  relative viability: 0.817
[7]; first compound 2.53 µM
  relative viability: 0.751
[7]; first compound 8 µM
  relative viability: 1
[8]; first compound 0.08 µM
  relative viability: 0.636
[8]; first compound 0.253 µM
  relative viability: 0.86
[8]; first compound 0.8 µM
  relative viability: 0.767
[8]; first compound 2.53 µM
  relative viability: 0.703
[8]; first compound 8 µM
  relative viability: 0.644
[9]; first compound 0.08 µM
  relative viability: 0.189
[9]; first compound 0.253 µM
  relative viability: 0.196
[9]; first compound 0.8 µM
  relative viability: 0.168
[9]; first compound 2.53 µM
  relative viability: 0.189
[9]; first compound 8 µM
  relative viability: 0.178
[10]; first compound 0.08 µM
  relative viability: 1.02
[10]; first compound 0.253 µM
  relative viability: 1.28
[10]; first compound 0.8 µM
  relative viability: 0.935
[10]; first compound 2.53 µM
  relative viability: 1.05
[10]; first compound 8 µM
  relative viability: 1.24
[11]; first compound 0.08 µM
  relative viability: 0.827
[11]; first compound 0.253 µM
  relative viability: 1.06
[11]; first compound 0.8 µM
  relative viability: 0.894
[11]; first compound 2.53 µM
  relative viability: 0.794
[11]; first compound 8 µM
  relative viability: 0.973
[12]; first compound 0.08 µM
  relative viability: 1.05
[12]; first compound 0.253 µM
  relative viability: 1.21
[12]; first compound 0.8 µM
  relative viability: 0.977
[12]; first compound 2.53 µM
  relative viability: 0.928
[12]; first compound 8 µM
  relative viability: 1.14
[13]; first compound 0.08 µM
  relative viability: 0.239
[13]; first compound 0.253 µM
  relative viability: 0.226
[13]; first compound 0.8 µM
  relative viability: 0.224
[13]; first compound 2.53 µM
  relative viability: 0.231
[13]; first compound 8 µM
  relative viability: 0.225
[14]; first compound 0.08 µM
  relative viability: 0.533
[14]; first compound 0.253 µM
  relative viability: 0.781
[14]; first compound 0.8 µM
  relative viability: 0.485
[14]; first compound 2.53 µM
  relative viability: 0.652
[14]; first compound 8 µM
  relative viability: 0.573
[15]; first compound 0.08 µM
  relative viability: 0.935
[15]; first compound 0.253 µM
  relative viability: 0.841
[15]; first compound 0.8 µM
  relative viability: 0.867
[15]; first compound 2.53 µM
  relative viability: 0.779
[15]; first compound 8 µM
  relative viability: 1.2
[16]; first compound 0.08 µM
  relative viability: 0.753
[16]; first compound 0.253 µM
  relative viability: 0.781
[16]; first compound 0.8 µM
  relative viability: 1.25
[16]; first compound 2.53 µM
  relative viability: 0.685
[16]; first compound 8 µM
  relative viability: 1.18
[17]; first compound 0.08 µM
  relative viability: 1.19
[17]; first compound 0.253 µM
  relative viability: 1.21
[17]; first compound 0.8 µM
  relative viability: 0.985
[17]; first compound 2.53 µM
  relative viability: 0.886
[17]; first compound 8 µM
  relative viability: 0.83
[18]; first compound 0.08 µM
  relative viability: 0.707
[18]; first compound 0.253 µM
  relative viability: 0.803
[18]; first compound 0.8 µM
  relative viability: 0.554
[18]; first compound 2.53 µM
  relative viability: 0.751
[18]; first compound 8 µM
  relative viability: 0.732
[19]; first compound 0.08 µM
  relative viability: 0.703
[19]; first compound 0.253 µM
  relative viability: 0.706
[19]; first compound 0.8 µM
  relative viability: 0.81
[19]; first compound 2.53 µM
  relative viability: 0.734
[19]; first compound 8 µM
  relative viability: 1.05
[20]; first compound 0.08 µM
  relative viability: 0.359
[20]; first compound 0.253 µM
  relative viability: 0.323
[20]; first compound 0.8 µM
  relative viability: 0.306
[20]; first compound 2.53 µM
  relative viability: 0.375
[20]; first compound 8 µM
  relative viability: 0.386
[21]; first compound 0.08 µM
  relative viability: 0.44
[21]; first compound 0.253 µM
  relative viability: 0.497
[21]; first compound 0.8 µM
  relative viability: 0.435
[21]; first compound 2.53 µM
  relative viability: 0.437
[21]; first compound 8 µM
  relative viability: 0.532
